Laboratory results as given in patent publication US20060030620A1, “Method for treating and/or preventing ischemia/reperfusion injury” (priority 2004, published 2006).

Tests used:
Type in all cases: in vivo, Spargue-Dawley rats
[1] = tested on: liver ischemia/reperfusion injury; assay: Plasma AST/ALT during hepatic ischemia/reperfusion
Description: (§1) The liver was then examined by the following assays.
(§2) The collected blood samples were centrifuged at 4000 g×5 min to separate the plasma, and the levels of aspartate transaminase (AST), alanine transaminase (ALT), and alkaline phosphatase (ALP) in the bile juice were measured with an auto-analyzer (model H-747E, Hitachi Co., Tokyo). Lipid peroxide was followed as Masugi and Nagamura stated by thiobarbituric acid method using malondialdehyde (MDA) tetraethyl acetal as the standard and expressed results of MDA equivalents.
(§3) Each data was expressed as mean±SD.

[2] = tested on: liver ischemia/reperfusion injury; assay: Bile flow during hepatic ischemia/reperfusion
Description: as §1, §3

[3] = tested on: liver ischemia/reperfusion injury; assay: Bile juice ALP during hepatic ischemia/reperfusion; details: after 120 minutes of reperfusion, MA 100 mg/kg
Description: as §1, §2, §3

[4] = tested on: liver ischemia/reperfusion injury; assay: Lipid peroxidation assay (liver MDA, thiobarbituric acid method); set-up: post-ischemic MDA levels in liver: unit not given here
Description: as §1, §2
(§4) Protein contents of the collected tissues were assayed with Lowry using bovine serum albumin as the standard. The collected tissue was fixed in saline buffered with 10% formaldehyde solution, embedded in paraffin wax, sliced into 5 μm thickness of each, stained with H&E staining method, and examined with a light microscope by a pathologist independently.
as §3

[5] = tested on: liver ischemia/reperfusion injury; assay: Histological investigation of the liver after hepatic I/R (H&E); details: 70 minutes of ischemia and 120 minutes of reperfusion; MA-treated ischemia group
Description: as §1, §4
Histological changes in liver after hepatic I/R were kept with the above biochemical experiments of plasma and bile juice analysis. The placebo group was shown on A (100×) and B (400×); wherein “1” is severe endothelial damage, “2” is bile duct dilation, “3,” is parenchyma edema with RBC congestion, “4,” is Cholestasis, and “5” is hepatocyte necrosis. […] The dilated bile duct might be attributed to ischemic process when the clamp was used to stop the blood flow and simultaneously obstruct the bile flow. Parenchyma edema and RBC congestion might develop from the inflammatory process during I/R process.

[6] = MA 100 mg/kg iv 10 min prior to reperfusion, 70 min ischemia, after 120-minute reperfusion, mean±SD
[7] = after 60 minutes of reperfusion, P<0.05
[8] = after 120 minutes of reperfusion, MA 100 mg/kg iv

Magnesium ascorbate
increase in AST and ALT activity versus vehicle-treated ischemia rats ([1]; 1 to 4 hours after reperfusion, MA 100 mg/kg, P<0.05): significantly suppressed
average plasma AST level [1, 6]: 2040±882 U/l
plasma ALT level [1, 6]: 4466±1745 U/l
plasma AST levels compared with the placebo group ([1]; after 30 minutes of reperfusion, P<0.05): significantly decreased
plasma AST levels compared with the placebo group [1, 7]: significantly decreased
decrease of the elevated serum ALT level [1, 8]: 69%
decrease of the elevated serum AST level [1, 8]: 78%
bile flow compared with the control group (sham) ([2]; P=0.21): significantly restored resemble to normal values
choleretic effect compared with the placebo group [2, 7]: significantly increased
secreted bile juice versus vehicle-treated ischemia group ([2]; after 120 minutes of reperfusion injury): significantly doubled
bile flow ([2]; after 120 minutes of reperfusion, MA 100 mg/kg iv, mean±SD): 1353 ± 351 µL/h/kg
bile flow compared with the vehicle-treated ischemia group ([2]; from 60 minutes to 240 minutes of reperfusion, P<0.05): significantly restored
relief of the ALP in bile juice from I/R damage [3]: about 70%
bile ALP ([3]; mean±SD): 34.5±8.3 U/l
post-ischemic MDA levels in liver ([4]; 70 min ischemia and 120 min reperfusion, MA 100 mg/kg 10 min prior to reperfusion, mean±SD, P<0.02): 1054±414
MDA concentration in liver tissue versus vehicle-treated ischemia group ([4]; MA 100 mg/kg infusion 10 minutes prior to reperfusion, after 120 minutes of reperfusion): significantly decreased
histological findings of the liver (H&E) [5]: minor lesions were observed, damaged to the vascular endothelium and cholestasis was also mild
